5 compounds from ChEMBL document CHEMBL3046957, “Synthesis of new oxadiazole derivatives as anti-inflammatory, analgesic, and antimicrobial agents” (2013) can be followed below.

Type in all cases: functional
Assay [1] has as its system Aspergillus niger. Description: Antifungal activity against Aspergillus niger assessed as growth inhibition at 100 ug/mL after 24 hr by cup-plate method. The note with it: read-out: DIZ.
In assay [2] the test system is Aspergillus niger. The experiment in a line: Antifungal activity against Aspergillus niger assessed as growth inhibition at 50 ug/mL after 24 hr by cup-plate method. The note with it: read-out: DIZ.
For assay [3], the system named is Candida albicans. The experiment in a line: Antifungal activity against Candida albicans assessed as growth inhibition at 100 ug/mL after 24 hr by cup-plate method. To be noted: read-out: DIZ.
Assay [4] deals with Candida albicans. The experiment in a line: Antifungal activity against Candida albicans assessed as growth inhibition at 50 ug/mL after 24 hr by cup-plate method. To be noted: read-out: DIZ.
The test system of assay [5] is Pseudomonas aeruginosa. Description: Antibacterial activity against Pseudomonas aeruginosa assessed as growth inhibition at 100 ug/mL after 24 to 48 hr by cup-plate method. The note with it: read-out: DIZ.
Assay [6] has as its system Pseudomonas aeruginosa. Description: Antibacterial activity against Pseudomonas aeruginosa assessed as growth inhibition at 50 ug/mL after 24 to 48 hr by cup-plate method. The note with it: read-out: DIZ.
The test system of assay [7] is Escherichia coli. Description: Antibacterial activity against Escherichia coli assessed as growth inhibition at 100 ug/mL after 24 to 48 hr by cup-plate method. To be noted: read-out: DIZ.
The subject of assay [8] is Bacillus subtilis. The experiment in a line: Antibacterial activity against Bacillus subtilis assessed as growth inhibition at 100 ug/mL after 24 to 48 hr by cup-plate method. The note with it: read-out: DIZ.
Assay [9] relates to Escherichia coli. Description: Antibacterial activity against Escherichia coli assessed as growth inhibition at 50 ug/mL after 24 to 48 hr by cup-plate method. To be noted: read-out: DIZ.
Assay [10] relates to Bacillus subtilis. Description: Antibacterial activity against Bacillus subtilis assessed as growth inhibition at 50 ug/mL after 24 to 48 hr by cup-plate method. The note with it: read-out: DIZ.
For assay [11], the system named is Staphylococcus aureus. The experiment in a line: Antibacterial activity against Staphylococcus aureus assessed as growth inhibition at 100 ug/mL after 24 to 48 hr by cup-plate method. The note with it: read-out: DIZ.
Assay [12] has as its system Staphylococcus aureus. Description: Antibacterial activity against Staphylococcus aureus assessed as growth inhibition at 50 ug/mL after 24 to 48 hr by cup-plate method. The note with it: read-out: DIZ.
Assay [13] has as its system Mus musculus. Description: Analgesic activity in Swiss albino Mus musculus (mouse) assessed as latency time of heat-induced paw licking/jumping behaviour at 10 mg/kg after 4 hr by Eddy's hot plate method (reference value: 4.57 +/- 0.11 secs).
The subject of assay [14] is Mus musculus. Description: Analgesic activity in Swiss albino Mus musculus (mouse) assessed as latency time of heat-induced paw licking/jumping behaviour at 10 mg/kg after 2 hr by Eddy's hot plate method (reference value: 4.86 +/- 0.18 secs).
The subject of assay [15] is Mus musculus. The experiment in a line: Analgesic activity in Swiss albino Mus musculus (mouse) assessed as latency time of heat-induced paw licking/jumping behaviour at 10 mg/kg after 1 hr by Eddy's hot plate method (reference value: 4.74 +/- 0.21 secs).
Assay [16] deals with Mus musculus. The experiment in a line: Analgesic activity in Swiss albino Mus musculus (mouse) assessed as latency time of heat-induced paw licking/jumping behaviour at 10 mg/kg after 0.5 hr by Eddy's hot plate method (reference value: 4.17 +/- 0.04 secs).
The subject of assay [17] is Rattus norvegicus. The experiment in a line: Anti-inflammatory activity in Wistar albino Rattus norvegicus (rat) assessed as inhibition of carrageenan-induced paw edema at 10 mg/kg, po administered 30 min prior to carrageenan challenge measured after 3 hr by plethysmometric analysis relative to untreated control.
For assay [18], the system named is Rattus norvegicus. The experiment in a line: Anti-inflammatory activity in Wistar albino Rattus norvegicus (rat) assessed as inhibition of carrageenan-induced paw edema at 10 mg/kg, po administered 30 min prior to carrageenan challenge measured after 2 hr by plethysmometric analysis relative to untreated control.
In assay [19] the test system is Rattus norvegicus. Description: Anti-inflammatory activity in Wistar albino Rattus norvegicus (rat) assessed as inhibition of carrageenan-induced paw edema at 10 mg/kg, po administered 30 min prior to carrageenan challenge measured after 1.5 hr by plethysmometric analysis relative to untreated control.
In assay [20] the test system is Rattus norvegicus. Description: Anti-inflammatory activity in Wistar albino Rattus norvegicus (rat) assessed as inhibition of carrageenan-induced paw edema at 10 mg/kg, po administered 30 min prior to carrageenan challenge measured after 1 hr by plethysmometric analysis relative to untreated control.
Assay [21] relates to Rattus norvegicus. The experiment in a line: Anti-inflammatory activity in Wistar albino Rattus norvegicus (rat) assessed as inhibition of carrageenan-induced paw edema at 10 mg/kg, po administered 30 min prior to carrageenan challenge measured after 0.5 hr by plethysmometric analysis relative to untreated control.

`COc1ccc(F)cc1-c1cccc(-c2nn(CCOS(=O)(=O)c3ccc(F)c(Cl)c3)c(=O)o2)c1`: the zone of inhibition at 100 µg/mL in the assay on Aspergillus niger [1] was found to be 11 mm; with Candida albicans [3] it was 7 mm; in the assay on Pseudomonas aeruginosa [5], 18 mm; in the assay on Escherichia coli [7], 19 mm; in the assay with Bacillus subtilis [8] it was 22 mm; in the assay with Staphylococcus aureus [11], 20 mm. The zone of inhibition at 50 µg/mL in the assay with Aspergillus niger [2] came to 9 mm; with Candida albicans [4], 8 mm; with Pseudomonas aeruginosa [6], 17 mm; in the assay with Escherichia coli [9], 13 mm; with Bacillus subtilis [10], 20 mm; with Staphylococcus aureus [12] it was 13 mm. Besides, the Time with Mus musculus [13] was found to be 5.47 s; in the assay on Mus musculus [14], 5.87 s; with Mus musculus [15], 4.69 s; in the assay with Mus musculus [16], 4.62 s. Also, the inhibition in vivo at 10 mg/kg is 65% with Rattus norvegicus [17]; 62% in the assay with Rattus norvegicus [18]; 55% in the assay on Rattus norvegicus [19]; 42% in the assay with Rattus norvegicus [20]; 23% in the assay on Rattus norvegicus [21].
As to `COc1ccc(F)cc1-c1cccc(-c2nn(CCOC3CCCCO3)c(=O)o2)c1` (stereo not given), the zone of inhibition at 100 µg/mL was found to be 11 mm in the assay with Aspergillus niger [1]; 9 mm in the assay on Candida albicans [3]; 21 mm in the assay with Pseudomonas aeruginosa [5]; 16 mm with Escherichia coli [7]; 15 mm with Bacillus subtilis [8]; 14 mm in the assay on Staphylococcus aureus [11]. For the same compound, the zone of inhibition at 50 µg/mL in the assay on Aspergillus niger [2] is 8 mm; in the assay on Candida albicans [4] it was 9 mm; with Pseudomonas aeruginosa [6] it was 18 mm; in the assay with Escherichia coli [9] it was 9 mm; with Bacillus subtilis [10] it was 11 mm; in the assay on Staphylococcus aureus [12], 9 mm. Besides, the Time in the assay on Mus musculus [13] worked out at 4.21 s; in the assay on Mus musculus [14], 4.58 s; with Mus musculus [15], 4.21 s; in the assay on Mus musculus [16] it was 4.81 s. Moreover, the inhibition in vivo at 10 mg/kg with Rattus norvegicus [17] came out at 65%; with Rattus norvegicus [18], 56%; in the assay with Rattus norvegicus [19] it was 44%; with Rattus norvegicus [20], 32%; in the assay with Rattus norvegicus [21], 16%.
With `COC(=O)CCCn1nc(-c2cccc(-c3cc(F)ccc3OC)c2)oc1=O`, the zone of inhibition at 100 µg/mL with Aspergillus niger [1] was 16 mm; in the assay on Candida albicans [3] it was 17 mm; in the assay on Pseudomonas aeruginosa [5], 14 mm; with Escherichia coli [7] it was 18 mm; in the assay on Bacillus subtilis [8] it was 13 mm; with Staphylococcus aureus [11], 18 mm. For the same compound, the zone of inhibition at 50 µg/mL stood at 11 mm in the assay with Aspergillus niger [2]; 11 mm with Candida albicans [4]; 11 mm in the assay with Pseudomonas aeruginosa [6]; 10 mm in the assay with Escherichia coli [9]; 10 mm in the assay on Bacillus subtilis [10]; 11 mm in the assay on Staphylococcus aureus [12]. Also, the Time was 7.28 s with Mus musculus [13], 7.81 s with Mus musculus [14], 5.84 s in the assay on Mus musculus [15] and 5.51 s in the assay with Mus musculus [16]. Moreover, the inhibition in vivo at 10 mg/kg stood at 87% in the assay with Rattus norvegicus [17]; 74% with Rattus norvegicus [18]; 61% with Rattus norvegicus [19]; 45% in the assay on Rattus norvegicus [20]; 31% in the assay with Rattus norvegicus [21].
With `COc1ccc(F)cc1-c1cccc(-c2n[nH]c(=O)o2)c1`, the zone of inhibition at 100 µg/mL with Aspergillus niger [1] was 28 mm; in the assay on Candida albicans [3], 21 mm; with Pseudomonas aeruginosa [5], 13 mm; in the assay on Escherichia coli [7] it was 14 mm; with Bacillus subtilis [8], 12 mm; with Staphylococcus aureus [11], 13 mm. In addition, the zone of inhibition at 50 µg/mL turned out to be 15 mm in the assay with Aspergillus niger [2]; 12 mm in the assay with Candida albicans [4]; 10 mm in the assay with Pseudomonas aeruginosa [6]; 8 mm in the assay with Escherichia coli [9]; 8 mm in the assay on Bacillus subtilis [10]; 9 mm with Staphylococcus aureus [12]. In addition, the Time came out at 6.35 s in the assay on Mus musculus [13], 7.41 s in the assay on Mus musculus [14], 4.74 s in the assay with Mus musculus [15] and 4.22 s with Mus musculus [16]. Further, the inhibition in vivo at 10 mg/kg with Rattus norvegicus [17] was determined as 71%; in the assay with Rattus norvegicus [18] it was 56%; with Rattus norvegicus [19] it was 49%; in the assay with Rattus norvegicus [20], 41%; in the assay with Rattus norvegicus [21], 25%.
Take `COc1ccc(F)cc1-c1cccc(-c2nn(CCCN3C(=O)c4ccccc4C3=O)c(=O)o2)c1`: the zone of inhibition at 100 µg/mL came out at 10 mm in the assay on Aspergillus niger [1]; 10 mm with Candida albicans [3]; 19 mm in the assay with Pseudomonas aeruginosa [5]; 18 mm in the assay on Escherichia coli [7]; 18 mm in the assay on Bacillus subtilis [8]; 16 mm in the assay with Staphylococcus aureus [11]. Also, the zone of inhibition at 50 µg/mL in the assay on Aspergillus niger [2] came out at 7 mm; with Candida albicans [4], 6 mm; with Pseudomonas aeruginosa [6] it was 13 mm; in the assay with Escherichia coli [9], 15 mm; in the assay on Bacillus subtilis [10], 13 mm; with Staphylococcus aureus [12], 10 mm. Moreover, the Time in the assay with Mus musculus [13] was 4.01 s; in the assay on Mus musculus [14] it was 4.01 s; in the assay on Mus musculus [15], 4.11 s; in the assay on Mus musculus [16], 4.75 s. The inhibition in vivo at 10 mg/kg with Rattus norvegicus [17] stood at 64%; with Rattus norvegicus [18] it was 61%; with Rattus norvegicus [19] it was 49%; with Rattus norvegicus [20], 30%; in the assay on Rattus norvegicus [21], 19%.
